Results as given in US6338963B1, “Use of carbon monoxide dependent guanylyl cyclase modifiers to stimulate neuritogenesis” (NeoTherapeutics, Inc., priority 1994, dated 2002).
Like-named read-outs stand apart in the source and are kept apart here. Marks after values point to notes of the source that are not given here.

Experiments:
C57BL/6 mice = assay: Win-shift test, C57BL/6 mice with age-induced memory deficits; format: in vivo; details: for subjects performing significantly above chance/total number of subjects: AIT-082 30 mg/kg
Protocol: Twelve-month old male C57BL/6 mice were screened for performance in the win-shift foraging test. Subjects were tested at various inter-trial time intervals. Subjects who could not perform to criteria (>60% correct) at 10 seconds delay were classified as having a severe deficit. Subjects who performed to criteria at 10 seconds but not at 30 seconds were classified as having a moderate degree of deficit and subjects who performed to criteria at 30 seconds but not at 60 seconds were classified as having mild deficit. As in Example 21, subjects in each group were treated with either AIT-082 or PHY to determine the extent to which the working memory trace was prolonged. The results are presented in Table M directly below and graphically represented in FIG. 10.

NGF = assay: Summary of effects on growth factor mRNA and protein (Table R): NGF; set-up: key: ± = mRNA; + = protein; nt = not tested; details: Aged Brain
Source text: (§1) The constellation of effects of AIT-082 on production of mRNA encoding growth factors and on production of growth factor proteins is shown in Table R. The results summarized in […] show both transcriptional and translational effects on growth factors that are in the categories of neurotrophins, pleiotrophins, members of the S100 family of EF hand calcium binding proteins, and members of the TGFβ superfamily. As indicated, effects have been shown at both the mRNA (transcriptional) and protein (translational) levels.

mice [1] = assay: Prophylaxis of age-induced memory deficit (win-shift, monthly); format: in vivo; details: 30 mg/kg/day in drinking water from 14 months of age
Protocol: It has been observed that age-induced memory deficits typically begin to manifest themselves in mice between 14 and 16 months of age. Therefore, the treatment of mice was begun at 14 months of age with AIT-082 (30 mg/kg/day) in their drinking water. The animals were measured monthly for their memory using the win-shift foraging tests previously described.

acetylcholine receptors = format: binding, mice; details: for number of receptors (B max): mice treated 30 mg/kg 2 hours prior to sacrifice
GDNF = assay: Two-site ELISA of growth factor protein in rat brain and spinal cord: GDNF; format: in vivo, F344 rats
Protocol: (§2) Adult female F344 rats were given either AIT-082 (doses: 30 mg/kg/day or a higher dose of 30 mg/ml (˜3,000 mg/kg/day); n=6 rats per group) in their drinking water, or water alone, as a vehicle for control. The duration of the study was seven days, at which time the rats were anesthesized and perfused with ice-cold saline. The brains of the rats were rapidly removed. The brains were placed on a chilled glass plate and dissected into the following regions: basal forebrain, frontal cortex, parietal cortex, cerebellum, spinal cord, and hippocampal formation. Tissues were stored at −70° C. until assayed in a specific two-site ELISA for either NGF, BDNF, NT-3, or GNDF.
(§3) The results are shown in FIGS. 45 (BDNF), 46 (NT-3), 47 (GDNF) and 48 (NGF). For the results shown in FIGS. 45-48, animals were given only water (VEH, n=6) or water with AIT-082 at either 30 mg/kg/day (n=6) or 30 mg/ml (n=6) for seven days. The levels of each growth factor were determined in the frontal cortex (F. Cor.), parietal cortex (P.Cor.), hippocampal formation (Hipp.), basal forebrain (B.F.), cerebellum (Cer.), or spinal cord (Cord) using a specific two-site ELISA for each growth factor.
(§4) Adult female rats were given AIT-082 (30 mg/kg/day) in their drinking water or drinking water alone (n=6 for each group) for seven days prior to receiving a bilateral fimbria fornix transection (FFT).
The results are shown in FIGS. 49 (BDNF), 50 (NT-3), 51 (GDNF) and 52 (NGF). […] Levels of the growth factor were determined in frontal cortex (F.Cor.), parietal cortex (P.Cor.), hippocampal formation (Hipp.), basal forebrain (B.F.), cerebellum (Cer.), or spinal cord (Cord) using a specific two-site ELISA for each growth factor. […]
Results are shown in FIGS. 53 (BDNF), 54 (NT3), 55 (GDNF), and 56 (NGF). […] Levels of each growth factor were determined in frontal cortex (F.Cor.), parietal cortex (P. Cor.), hippocampal formation (Hipp.), basal forebrain (B.F.), cerebellum (Cer.) or spinal cord (Cord) using a specific two-site ELISA.

mice [2] = assay: Motor coordination, accelerating Roto-Rod treadmill; format: in vivo; details: AIT dose 0.005 mg/kg
Protocol: Motor coordination was measured using an accelerating Roto-Rod treadmill for mice (Ugo Basile Co.). At various times after treatment with saline or drug, mice were placed on the Roto-Rod, which accelerates to maximum speed over a 5 minute period. The time in seconds at which the subject falls off was recorded in Table B directly below. Each animal was tested 3 times and the mean time was recorded.

[3] = 79 different test systems
CNTF = assay: Summary of effects on growth factor mRNA and protein (Table R): CNTF; set-up: key: ± = mRNA; + = protein; nt = not tested
Source text: as §1

NT-3 = assay: Two-site ELISA of growth factor protein in rat brain and spinal cord: NT-3; format: in vivo, F344 rats
Protocol: as §2, §3, §4
The results are shown in FIGS. 49 (BDNF), 50 (NT-3), 51 (GDNF) and 52 (NGF). For the results shown in the Figures, animals were given only water (VEH, n=3) or water with AIT-082 at 30 mg/kg/day (n=3). Levels of the growth factor were determined in frontal cortex (F.Cor.), parietal cortex (P.Cor.), hippocampal formation (Hipp.), basal forebrain (B.F.), cerebellum (Cer.), or spinal cord (Cord) using a specific two-site ELISA for each growth factor.
Aged female Fischer 344 rats (obtained from National Institute on Aging; 24 months on arrival) were given AIT-082 (30 mg/kg/day) in their drinking water or drinking water alone, for a period of 30 days (n=5 rats per group). After 30 days, animals were sacrificed and fresh tissues were dissected as described above. An additional set of young animals (n=5) was processed along with the aged rats for comparison.
Results are shown in FIGS. 53 (BDNF), 54 (NT3), 55 (GDNF), and 56 (NGF). As described above, for the results shown in these figures, aged rats (24 months of age) were given water (vehicle control; n=5) or water with AIT-082 (at 30 mg/kg/day; n=5 for 30 days). A separate group of young untreated animals was also included (n=5). Levels of each growth factor were determined in frontal cortex (F.Cor.), parietal cortex (P. Cor.), hippocampal formation (Hipp.), basal forebrain (B.F.), cerebellum (Cer.) or spinal cord (Cord) using a specific two-site ELISA.

[4] = FFT-lesioned rats, 30 mg/kg/day, basal forebrain

Q: What does the source list for O=C(CCn1cnc2c(=O)[nH]cnc21)Nc1ccc(C(=O)O)cc1 [AIT-082, N-4-carboxyphenyl-3-(6-oxohydropurin-9-yl)propanamide]?
A: subjects performing significantly above chance/total number of subjects (C57BL/6 mice; Mild deficit, interval 60 sec): 4/4*; subjects performing significantly above chance/total number of subjects (C57BL/6 mice; Mild deficit, interval 90 sec): 2/4*; subjects performing significantly above chance/total number of subjects (C57BL/6 mice; Moderate deficit, interval 10 sec): 6/6*; subjects performing significantly above chance/total number of subjects (C57BL/6 mice; Moderate deficit, interval 30 sec): 4/6; subjects performing significantly above chance/total number of subjects (C57BL/6 mice; Moderate deficit, interval 60 sec): 1/6; subjects performing significantly above chance/total number of subjects (C57BL/6 mice; Moderate deficit, interval 90 sec): 0/6; subjects performing significantly above chance/total number of subjects (C57BL/6 mice; Severe deficit, interval <10 sec): 0/6; duration of the memory trace after treatment (C57BL/6 mice; mild deficit group, prolonged from 30): 90 s; duration of the memory trace after treatment (C57BL/6 mice; moderate deficit group, prolonged from 10): 30 s; NGF, effect on mRNA/protein production (NGF): ±; onset and severity of age-induced memory deficits (mice [1]): delayed the onset and severity of memory deficits; affinity (Kd) for QNB (acetylcholine receptors): no effect; number of receptors (B max) (acetylcholine receptors; cortex): decrease; number of receptors (B max) (acetylcholine receptors; striatum): increase; GDNF protein levels (GDNF; [4]): increased GDNF levels; GDNF protein levels (GDNF; aged rats, 30 mg/kg/day 30 days, parietal and frontal cortex): restored GDNF protein levels to those of young animals; GDNF protein levels (GDNF; intact adult rats, 3000 mg/kg/day, basal forebrain and spinal cord): increased GDNF levels; Roto-Rod performance, Time (mice [2]): 162 ± 93 s; toxicity in standard profile [3]: absence of any toxicity; CNTF, effect on mRNA/protein production (CNTF; Lesioned Spinal Cord): ±; CNTF, effect on mRNA/protein production (CNTF; Normal Spinal Cord): ±; NT-3 protein levels compared to vehicle controls (NT-3; [4]): threefold; NT-3 protein levels (NT-3; aged rats, 30 mg/kg/day 30 days, hippocampus): restored NT-3 protein levels to those of young animals; NT-3 protein levels (NT-3; intact adult rats, 30 mg/kg/day, cerebellum): increased NT-3 levels in cerebellum over vehicle controls; NT-3 protein levels (NT-3; intact adult rats, 3000 mg/kg/day, cerebellum): absent
